Laboratory results from patent US11236129B2, “IL-17A binding peptides and medical uses thereof” (Dompe' Farmaceutici S.P.A., priority 2018, dated 2022).
Like-named read-outs stand apart in the source and are kept apart here. Residues, ends and D or L forms follow the SMILES beside them.

How the values were obtained:
[1] = molecular target: IL-17RA/IL17RC dimerization induced by IL-17A (Homo sapiens, UniProt Q16552); experiment: IL-17RA/IL17RC dimerization assay in response to IL-17A (PathHunter Cytokine Receptor Assay); type: cell-based; conditions: IL-17A at EC80; read-out: IC50 in IL-17RA/IL7RC dimerization assay
Sequence of IL-17RA/IL17RC dimerization induced by IL-17A (Q16552 24-155): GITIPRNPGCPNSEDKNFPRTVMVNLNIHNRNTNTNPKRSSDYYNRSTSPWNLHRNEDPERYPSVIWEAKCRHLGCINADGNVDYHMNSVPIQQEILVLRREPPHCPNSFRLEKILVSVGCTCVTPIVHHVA
How it was run: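 Receptor dimerization was read as chemiluminescence from complemented β-galactosidase after IL-17A at EC80 concentration for 6–16 h at 37 °C. Peptides were added 60 min before agonist, at 37 °C or room temperature, with 1% vehicle. Percent inhibition used the EC80-stimulated and vehicle wells as references.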

[2] = Isoelectric point, log D and log P (SiriusT3); type: physicochemical; conditions: for IP (isoelectric point): 25±1° C., 0.15 M KCl; for logD: pH 7.4, pH 7.4, octanol/ISA water, read-out: Log D (7.4)
Protocol: The main physicochemical properties (Isoelectric point (IP), log D (7.4) and log P) of the peptides of Table 8 below were determined by using the SiriusT3 apparatus (Sirius Analytical Instruments Ltd., East Sussex, UK) equipped with an Ag/AgCl double junction reference pH electrode, a Sirius D-PAS spectrometer and a turbidity sensing device. […] An overhead stirrer was used and a temperature probe (Peltier controller) monitored the temperature during the course of the titration. The titration experiments were conducted in 0.15 M KCl Ionic Strength Adjusted solution (ISA water) under a nitrogen atmosphere at a temperature of 25±1° C. All tests were performed using standardized 0.5 M KOH and 0.5 M HCl as titration reagents, for the partition coefficient tests a saturated Octanol in ISA water (5% of ISA water) was used as partition solvent. The pKas were determined by potentiometric method by pH-metric titration. The powder (around 0.5 mg) was dissolved in 1.5 ml of ISA water and the titration was performed in triplicate in the pH range 2.0−12.0.

[3] = type: physicochemical; conditions: pH 7.8
Protocol: Each lyophilized peptide was weighed in an amber vial. A calculated volume of phosphate buffered solution at pH 7.8 was added in order to directly obtain 10 mM Stock Solutions. The recovered suspensions were stirred for 30 minutes by orbital shaker incubator at 37° C. Subsequent dilutions were performed to obtain the more diluted stock solutions for the less soluble compounds.
In order to evaluate the stability and the solubility, all the stock solutions were stored at 25° C. The title was evaluated by UHPLC-MS analysis in comparison with the standard solutions, at 3 time points: T0, 3 days, 1 week.
The chromatographic profile was evaluated for the quantitative assay while the MS spectra were detected as support in the stability studies.
Each peptide was weighed and directly diluted at 100 μM with the phosphate buffer at pH 7.8. The solutions were stirred for 5 minutes by vortex and heated at 37° C. for 20 minutes. The obtained standard solution was stored at 25° C. in the dark under controlled temperature.
A portion of the stock solutions was collected in an amber vial and diluted to 100 μM by phosphate buffer at pH 7.8 (dilution factor, 1:100).
Reversed-phase UHPLC was performed operating at a flow rate of 0.3 ml/min with a Luna Omega Polar C18 column ([…] 1.6 μm, 2.1×100 mm). Solvent A was 0.5% Formic Acid in water and solvent B was 0.5% Formic Acid in acetonitrile. First, samples were loaded onto the column and washed isocratically at 10% B for 3 min. Then, a gradient of 10-95% B was run over 22 min, held at 95% for 2 min, and then decreased to 10% over 1 min and held, for the pressure stabilization, for 5 min. UV Absorption was monitored by DAD (220-400 nm). ESI-MS ion trap was used for the monitoring of TIC.

[4] = octanol/ISA water, read-out: logP

Row | Compound | IC50 [1] [nM] | IP (isoelectric point) [2] | logP [2, 4] | logD [2] | solubility [3] [mM] | logP [2] | Log D (7.4) ([2]; pH 7.4)
1 | CC[C@H](C)[C@H](NC(=O)[C@H](Cc1c[nH]c2ccccc12)NC(=O)[C@H](CCC(=O)O)NC(=O)[C@H](Cc1ccc(O)cc1)NC(=O)[C@H](CC(C)C)NC(=O)[C@H](CC(=O)O)NC(=O)[C@H](C)NC(=O)[C@@H]1CCCN1C(=O)[C@@H](NC(=O)[C@@H](NC(=O)[C@@H](NC(=O)[C@H](CCSC)NC(=O)[C@@H](NC(C)=O)C(C)C)C(C)C)[C@@H](C)O)[C@@H](C)CC)C(=O)N[C@@H](CCC(=O)O)C(=O)N[C@@H](CCC(=O)O)C(=O)NCC(=O)NCC(=O)N[C@H](C(=O)N[C@@H](Cc1c[nH]c2ccccc12)C(=O)N[C@@H](Cc1c[nH]c2ccccc12)C(=O)N[C@H](C(=O)N[C@@H](CCC(=O)O)C(=O)N[C@@H](Cc1c[nH]c2ccccc12)C(=O)N[C@@H](CO)C(=O)N[C@@H](CCC(N)=O)C(N)=O)[C@@H](C)O)[C@@H](C)O [SEQ ID NO: 22] (Ac-VMVTIPADLYEWIEEGGTWWTEWSQ-NH2) | < 1000 | 4.26 | 0.4 | -3.18 | > 10 | – | –
2 | CC[C@H](C)[C@H](NC(=O)[C@H](Cc1c[nH]c2ccccc12)NC(=O)[C@H](CCC(=O)O)NC(=O)[C@H](Cc1ccc(O)cc1)NC(=O)[C@H](CC(C)C)NC(=O)[C@H](CC(=O)O)NC(=O)[C@H](C)NC(=O)[C@@H]1CCCN1C(=O)[C@@H](NC(=O)[C@@H](NC(=O)[C@@H](NC(=O)[C@H](CCSC)NC(=O)[C@@H](NC(C)=O)C(C)C)C(C)C)[C@@H](C)O)[C@@H](C)CC)C(=O)N[C@@H](CCC(=O)O)C(=O)N[C@@H](CCC(=O)O)C(=O)N[C@H](C(=O)N1CCC[C@H]1C(=O)NCC(=O)N[C@@H](Cc1c[nH]c2ccccc12)C(=O)NCC(N)=O)C(C)C [SEQ ID NO: 24] (Ac-VMVTIPADLYEWIEEVPGWG-NH2) | < 1000 | 5.14 | 2.45 | 2.15 | < 0.05 | – | –
3 | CC[C@H](C)[C@H](NC(=O)[C@H](Cc1c[nH]c2ccccc12)NC(=O)[C@H](CCC(=O)O)NC(=O)[C@H](Cc1ccc(O)cc1)NC(=O)[C@H](CC(C)C)NC(=O)[C@H](CC(=O)O)NC(=O)[C@H](C)NC(=O)[C@@H]1CCCN1C(=O)[C@@H](NC(=O)[C@@H](NC(=O)[C@@H](NC(=O)[C@H](CCSC)NC(=O)[C@@H](NC(C)=O)C(C)C)C(C)C)[C@@H](C)O)[C@@H](C)CC)C(=O)N[C@@H](CCC(=O)O)C(=O)N[C@@H](CCC(=O)O)C(=O)NCC(=O)NCC(=O)N[C@@H](CCCCN)C(=O)N[C@@H](CCC(=O)O)C(=O)N[C@H](C(=O)N[C@@H](Cc1c[nH]c2ccccc12)C(=O)N[C@@H](Cc1c[nH]c2ccccc12)C(=O)N[C@@H](CCC(=O)O)C(=O)N[C@H](C(=O)N[C@@H](Cc1c[nH]c2ccccc12)C(N)=O)[C@@H](C)O)[C@@H](C)O [SEQ ID NO: 25] (Ac-VMVTIPADLYEWIEEGGKETWWETW-NH2) | < 1000 | 4.66 | 0.4 | -5.64 | ≥ 0.1 | – | –
4 | CC[C@H](C)[C@H](NC(=O)[C@H](Cc1c[nH]c2ccccc12)NC(=O)[C@H](CCC(=O)O)NC(=O)[C@H](Cc1ccc(O)cc1)NC(=O)[C@H](CC(C)C)NC(=O)[C@H](CC(=O)O)NC(=O)[C@H](C)NC(=O)[C@@H]1CCCN1C(=O)[C@@H](NC(=O)[C@@H](NC(=O)[C@@H](NC(=O)[C@H](CCSC)NC(=O)[C@@H](NC(C)=O)C(C)C)C(C)C)[C@@H](C)O)[C@@H](C)CC)C(=O)N[C@@H](CCC(=O)O)C(=O)N[C@@H](CCC(=O)O)C(=O)N[C@H](C(=O)N1CCC[C@H]1C(=O)NCC(=O)N[C@@H](C)C(=O)NCC(N)=O)C(C)C [SEQ ID NO: 27] (Ac-VMVTIPADLYEWIEEVPGAG-NH2) | < 1000 | 5.14 | 0.69 | 0.148 | > 10 | – | –
5 | CC[C@H](C)[C@H](NC(=O)[C@H](Cc1c[nH]c2ccccc12)NC(=O)[C@H](CCC(=O)O)NC(=O)[C@H](Cc1ccc(O)cc1)NC(=O)[C@H](CC(C)C)NC(=O)[C@H](CC(=O)O)NC(=O)[C@H](C)NC(=O)[C@@H]1CCCN1C(=O)[C@@H](NC(=O)[C@@H](NC(=O)[C@@H](NC(=O)[C@H](CCSC)NC(=O)[C@@H](NC(=O)[C@H](CCCNC(=N)N)NC(=O)[C@H](CCCNC(=N)N)NC(=O)[C@H](CCCNC(=N)N)NC(=O)[C@H](CCCNC(=N)N)NC(=O)[C@H](CCCNC(=N)N)NC(=O)[C@H](CCCNC(=N)N)NC(=O)[C@H](CCCNC(=N)N)NC(=O)[C@H](CCCNC(=N)N)NC(C)=O)C(C)C)C(C)C)[C@@H](C)O)[C@@H](C)CC)C(=O)N[C@@H](CCC(=O)O)C(=O)N[C@@H](CCC(=O)O)C(N)=O [SEQ ID NO: 29] (Ac-RRRRRRRRVMVTIPADLYEWIEE-NH2) | < 1000 | 12.25 | – | – | > 10 | – | –

Continued, values first:

Row | IC50 [1] [nM] | IP (isoelectric point) [2] | logP [2, 4] | logD [2] | solubility [3] [mM] | logP [2] | Log D (7.4) ([2]; pH 7.4) | Compound
6 | < 1000 | 4.26 | 1.01 | -2.24 | ≥ 0.05 | – | – | CC[C@H](C)[C@H](NC(=O)[C@H](Cc1c[nH]c2ccccc12)NC(=O)[C@H](CCC(=O)O)NC(=O)[C@H](Cc1ccc(O)cc1)NC(=O)[C@H](CC(C)C)NC(=O)[C@H](CC(=O)O)NC(=O)[C@H](C)NC(=O)[C@@H]1CCCN1C(=O)[C@@H](NC(=O)[C@@H](NC(=O)[C@@H](NC(=O)[C@H](CCSC)NC(=O)[C@@H](NC(C)=O)C(C)C)C(C)C)[C@@H](C)O)[C@@H](C)CC)C(=O)N[C@@H](CCC(=O)O)C(=O)N[C@@H](CCC(=O)O)C(=O)N[C@H](C(=O)N[C@@H](Cc1c[nH]c2ccccc12)C(=O)N[C@@H](Cc1c[nH]c2ccccc12)C(=O)N[C@@H](CCC(=O)O)C(=O)N[C@H](C(=O)N[C@@H](Cc1c[nH]c2ccccc12)C(=O)N[C@@H](Cc1c[nH]c2ccccc12)C(N)=O)[C@@H](C)O)[C@@H](C)O [SEQ ID NO: 23] (Ac-VMVTIPADLYEWIEETWWETWW-NH2)
7 | < 1000 | 8.13 | 0.69 | 0.148 | > 10 | – | – | CC[C@H](C)[C@H](NC(=O)[C@H](Cc1c[nH]c2ccccc12)NC(=O)[C@H](CCC(=O)O)NC(=O)[C@H](Cc1ccc(O)cc1)NC(=O)[C@H](CC(C)C)NC(=O)[C@H](CC(=O)O)NC(=O)[C@H](C)NC(=O)[C@@H]1CCCN1C(=O)[C@@H](NC(=O)[C@@H](NC(=O)[C@@H](NC(=O)[C@H](CCSC)NC(=O)[C@@H](NC(C)=O)C(C)C)C(C)C)[C@@H](C)O)[C@@H](C)CC)C(=O)N[C@@H](CCC(=O)O)C(=O)N[C@@H](CCC(=O)O)C(=O)N[C@H](C(=O)N1CCC[C@H]1C(=O)NCC(=O)N[C@@H](CCCCN)C(=O)NCC(N)=O)C(C)C [SEQ ID NO: 26] (Ac-VMVTIPADLYEWIEEVPGKG-NH2)
8 | < 1000 | 12.25 | – | – | ≥ 0.1 | −6.36 | −6.44 | CC[C@H](C)[C@H](NC(=O)[C@H](Cc1c[nH]c2ccccc12)NC(=O)[C@H](CCC(=O)O)NC(=O)[C@H](Cc1ccc(O)cc1)NC(=O)[C@H](CC(C)C)NC(=O)[C@H](CC(=O)O)NC(=O)[C@H](C)NC(=O)[C@@H]1CCCN1C(=O)[C@@H](NC(=O)[C@@H](NC(=O)[C@@H](NC(=O)[C@H](CCSC)NC(=O)[C@@H](NC(C)=O)C(C)C)C(C)C)[C@@H](C)O)[C@@H](C)CC)C(=O)N[C@@H](CCC(=O)O)C(=O)N[C@@H](CCC(=O)O)C(=O)N[C@@H](CCCNC(=N)N)C(=O)N[C@@H](CCC(N)=O)C(=O)N[C@H](C(=O)N[C@@H](CCCCN)C(=O)N[C@H](C(=O)N[C@@H](Cc1c[nH]c2ccccc12)C(=O)N[C@@H](Cc1ccccc1)C(=O)N[C@@H](CCC(N)=O)C(=O)N[C@@H](CC(N)=O)C(=O)N[C@@H](CCCNC(=N)N)C(=O)N[C@@H](CCCNC(=N)N)C(=O)N[C@@H](CCSC)C(=O)N[C@@H](CCCCN)C(=O)N[C@@H](Cc1c[nH]c2ccccc12)C(=O)N[C@@H](CCCCN)C(=O)N[C@@H](CCCCN)C(N)=O)[C@@H](C)CC)[C@@H](C)CC [SEQ ID NO: 28] (Ac-VMVTIPADLYEWIEERQIKIWFQNRRMKWKK-NH2)
